From ChEMBL document CHEMBL3108763, “[1,2,4]triazolo[4,3-a]phthalazines: inhibitors of diverse bromodomains” (J Med Chem, 2014)

What was measured:
[1] = biological target: T1, Transcription intermediary factor 1-alpha (Homo sapiens) (UniProt O15164); conditions: 50 uM
T1 sequence (whole entry): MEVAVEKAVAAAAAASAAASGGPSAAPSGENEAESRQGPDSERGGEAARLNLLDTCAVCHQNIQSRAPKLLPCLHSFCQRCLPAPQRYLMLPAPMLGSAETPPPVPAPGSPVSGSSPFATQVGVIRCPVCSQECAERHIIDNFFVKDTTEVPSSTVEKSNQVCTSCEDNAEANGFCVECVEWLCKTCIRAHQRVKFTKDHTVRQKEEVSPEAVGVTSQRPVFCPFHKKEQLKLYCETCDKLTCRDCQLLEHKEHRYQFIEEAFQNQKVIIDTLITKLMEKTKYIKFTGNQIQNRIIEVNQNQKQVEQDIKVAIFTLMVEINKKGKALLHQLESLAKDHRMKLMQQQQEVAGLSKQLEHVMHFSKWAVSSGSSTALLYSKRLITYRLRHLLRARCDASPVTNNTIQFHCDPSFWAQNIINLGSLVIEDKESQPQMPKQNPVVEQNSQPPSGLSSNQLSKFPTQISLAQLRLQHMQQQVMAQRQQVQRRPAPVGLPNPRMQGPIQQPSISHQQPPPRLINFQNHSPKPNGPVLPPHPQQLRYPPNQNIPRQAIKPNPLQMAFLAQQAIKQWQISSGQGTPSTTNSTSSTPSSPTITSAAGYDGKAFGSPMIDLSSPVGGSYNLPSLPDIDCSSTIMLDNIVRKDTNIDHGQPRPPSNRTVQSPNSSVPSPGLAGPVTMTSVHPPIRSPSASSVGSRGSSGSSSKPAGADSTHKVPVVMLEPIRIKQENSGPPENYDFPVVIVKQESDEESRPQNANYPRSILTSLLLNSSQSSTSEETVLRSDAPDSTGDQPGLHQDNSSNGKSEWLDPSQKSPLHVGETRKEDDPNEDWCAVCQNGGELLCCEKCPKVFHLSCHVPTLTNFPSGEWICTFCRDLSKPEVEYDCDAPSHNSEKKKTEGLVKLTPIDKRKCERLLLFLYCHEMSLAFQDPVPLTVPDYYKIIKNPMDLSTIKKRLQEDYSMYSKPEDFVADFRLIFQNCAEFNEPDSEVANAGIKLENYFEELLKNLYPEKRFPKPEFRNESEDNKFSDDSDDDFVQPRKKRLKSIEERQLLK

[2] = biological target: T1, Transcription intermediary factor 1-alpha (Homo sapiens); conditions: 100 uM
[3] = biological target: Protein polybromo-1 (Homo sapiens) (UniProt Q86U86); conditions: 100 uM
Chain of Protein polybromo-1 (Homo sapiens) (Q86U86 whole entry, the tested form may be a part): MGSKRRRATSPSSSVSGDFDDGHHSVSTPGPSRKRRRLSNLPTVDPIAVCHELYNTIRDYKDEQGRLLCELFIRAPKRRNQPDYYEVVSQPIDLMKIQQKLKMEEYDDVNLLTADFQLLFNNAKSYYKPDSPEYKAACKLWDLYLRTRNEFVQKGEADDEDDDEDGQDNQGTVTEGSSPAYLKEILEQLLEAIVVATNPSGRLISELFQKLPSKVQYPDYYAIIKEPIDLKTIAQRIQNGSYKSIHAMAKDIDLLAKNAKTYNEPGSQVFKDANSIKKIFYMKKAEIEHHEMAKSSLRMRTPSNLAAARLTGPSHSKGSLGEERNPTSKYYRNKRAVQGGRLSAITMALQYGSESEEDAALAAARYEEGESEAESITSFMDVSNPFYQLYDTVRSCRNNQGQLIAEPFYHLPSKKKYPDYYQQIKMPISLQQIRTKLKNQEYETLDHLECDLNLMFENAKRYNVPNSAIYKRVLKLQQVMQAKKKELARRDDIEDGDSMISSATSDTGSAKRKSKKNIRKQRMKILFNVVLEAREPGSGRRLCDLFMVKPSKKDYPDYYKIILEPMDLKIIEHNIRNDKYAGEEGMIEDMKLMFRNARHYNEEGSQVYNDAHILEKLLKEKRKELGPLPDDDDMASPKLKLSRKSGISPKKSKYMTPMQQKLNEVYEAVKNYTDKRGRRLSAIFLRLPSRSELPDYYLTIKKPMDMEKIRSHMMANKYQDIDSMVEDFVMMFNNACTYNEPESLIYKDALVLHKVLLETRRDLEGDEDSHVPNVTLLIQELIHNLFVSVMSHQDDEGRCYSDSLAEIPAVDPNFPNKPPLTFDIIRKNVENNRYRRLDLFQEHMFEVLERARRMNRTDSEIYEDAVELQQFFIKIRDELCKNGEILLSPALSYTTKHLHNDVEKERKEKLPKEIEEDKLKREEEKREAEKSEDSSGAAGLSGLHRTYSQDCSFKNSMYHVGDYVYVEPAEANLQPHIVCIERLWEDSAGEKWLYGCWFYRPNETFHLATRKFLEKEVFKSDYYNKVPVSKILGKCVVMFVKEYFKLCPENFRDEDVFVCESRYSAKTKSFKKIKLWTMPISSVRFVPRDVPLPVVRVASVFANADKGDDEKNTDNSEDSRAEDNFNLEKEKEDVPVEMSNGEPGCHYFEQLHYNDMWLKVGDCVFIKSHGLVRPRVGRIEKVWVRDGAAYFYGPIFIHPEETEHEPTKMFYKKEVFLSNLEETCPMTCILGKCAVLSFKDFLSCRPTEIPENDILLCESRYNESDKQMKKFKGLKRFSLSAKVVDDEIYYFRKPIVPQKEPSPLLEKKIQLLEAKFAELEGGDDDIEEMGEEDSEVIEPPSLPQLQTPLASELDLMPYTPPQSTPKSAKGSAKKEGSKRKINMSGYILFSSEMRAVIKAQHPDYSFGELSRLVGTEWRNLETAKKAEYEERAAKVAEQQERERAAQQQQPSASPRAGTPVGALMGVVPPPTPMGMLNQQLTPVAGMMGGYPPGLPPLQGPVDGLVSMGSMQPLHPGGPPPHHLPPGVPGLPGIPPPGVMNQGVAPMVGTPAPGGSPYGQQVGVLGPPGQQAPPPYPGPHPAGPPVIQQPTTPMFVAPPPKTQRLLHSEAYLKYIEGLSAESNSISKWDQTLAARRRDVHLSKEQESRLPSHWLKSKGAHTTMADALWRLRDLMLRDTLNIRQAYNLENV

[4] = biological target: Bromodomain adjacent to zinc finger domain protein 2B (Homo sapiens) (UniProt Q9UIF8); conditions: 100 uM
Chain of Bromodomain adjacent to zinc finger domain protein 2B (Homo sapiens) (Q9UIF8 whole entry, the tested form may be a part): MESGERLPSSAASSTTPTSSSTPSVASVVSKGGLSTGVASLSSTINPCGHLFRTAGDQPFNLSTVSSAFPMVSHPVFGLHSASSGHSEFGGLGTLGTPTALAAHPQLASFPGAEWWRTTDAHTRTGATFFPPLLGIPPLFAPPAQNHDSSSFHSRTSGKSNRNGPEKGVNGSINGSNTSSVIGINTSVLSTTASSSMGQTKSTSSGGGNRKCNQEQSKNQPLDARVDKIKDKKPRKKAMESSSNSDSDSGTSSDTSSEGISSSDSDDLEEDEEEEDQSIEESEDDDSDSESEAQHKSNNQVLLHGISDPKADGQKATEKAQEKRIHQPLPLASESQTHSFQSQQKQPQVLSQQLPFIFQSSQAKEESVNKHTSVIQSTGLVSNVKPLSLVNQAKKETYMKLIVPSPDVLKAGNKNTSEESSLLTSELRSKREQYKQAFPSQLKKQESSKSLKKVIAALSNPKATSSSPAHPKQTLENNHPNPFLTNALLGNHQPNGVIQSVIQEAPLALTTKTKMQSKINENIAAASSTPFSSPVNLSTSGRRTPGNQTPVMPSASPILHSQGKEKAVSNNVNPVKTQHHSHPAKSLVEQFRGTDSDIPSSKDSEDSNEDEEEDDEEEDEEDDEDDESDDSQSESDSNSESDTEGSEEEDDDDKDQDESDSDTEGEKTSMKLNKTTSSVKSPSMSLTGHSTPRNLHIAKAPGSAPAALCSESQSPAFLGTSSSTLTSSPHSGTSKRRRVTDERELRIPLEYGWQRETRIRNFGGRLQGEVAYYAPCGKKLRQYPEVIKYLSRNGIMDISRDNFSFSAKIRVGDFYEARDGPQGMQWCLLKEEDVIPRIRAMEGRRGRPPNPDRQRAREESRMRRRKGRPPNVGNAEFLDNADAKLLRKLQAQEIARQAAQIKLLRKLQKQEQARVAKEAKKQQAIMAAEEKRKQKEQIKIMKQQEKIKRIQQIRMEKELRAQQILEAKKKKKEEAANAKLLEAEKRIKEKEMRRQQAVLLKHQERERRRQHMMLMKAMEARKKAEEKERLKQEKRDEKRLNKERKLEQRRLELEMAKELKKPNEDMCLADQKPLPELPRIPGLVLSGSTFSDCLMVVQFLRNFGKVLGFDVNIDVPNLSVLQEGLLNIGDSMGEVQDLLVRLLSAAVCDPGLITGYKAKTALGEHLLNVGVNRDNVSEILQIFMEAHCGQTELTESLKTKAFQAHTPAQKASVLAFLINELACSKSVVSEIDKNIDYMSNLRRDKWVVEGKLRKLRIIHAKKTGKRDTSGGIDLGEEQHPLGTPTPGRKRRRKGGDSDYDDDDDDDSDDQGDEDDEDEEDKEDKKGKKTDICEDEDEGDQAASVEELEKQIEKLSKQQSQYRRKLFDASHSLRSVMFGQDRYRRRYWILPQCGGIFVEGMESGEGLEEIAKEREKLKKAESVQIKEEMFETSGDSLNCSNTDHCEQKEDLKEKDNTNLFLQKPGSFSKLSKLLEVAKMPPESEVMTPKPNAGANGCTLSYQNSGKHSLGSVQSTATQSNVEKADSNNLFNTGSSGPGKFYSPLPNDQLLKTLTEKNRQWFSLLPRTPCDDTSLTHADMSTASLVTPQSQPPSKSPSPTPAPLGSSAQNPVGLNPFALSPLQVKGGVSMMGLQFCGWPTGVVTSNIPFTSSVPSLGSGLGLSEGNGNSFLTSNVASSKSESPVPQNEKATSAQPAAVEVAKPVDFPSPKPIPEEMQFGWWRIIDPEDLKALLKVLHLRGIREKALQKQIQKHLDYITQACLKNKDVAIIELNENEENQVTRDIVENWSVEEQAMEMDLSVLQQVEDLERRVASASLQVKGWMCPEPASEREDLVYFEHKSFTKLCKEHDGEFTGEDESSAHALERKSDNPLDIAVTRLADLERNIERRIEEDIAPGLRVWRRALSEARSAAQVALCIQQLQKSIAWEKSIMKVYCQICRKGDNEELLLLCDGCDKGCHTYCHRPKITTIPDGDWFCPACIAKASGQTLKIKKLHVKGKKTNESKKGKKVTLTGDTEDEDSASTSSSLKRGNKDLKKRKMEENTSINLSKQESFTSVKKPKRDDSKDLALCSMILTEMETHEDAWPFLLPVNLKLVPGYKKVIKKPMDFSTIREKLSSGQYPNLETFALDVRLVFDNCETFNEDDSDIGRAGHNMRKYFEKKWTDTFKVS

inhibition [1] [%]	inhibition [2] [%]	inhibition [3] [%]	inhibition [4] [%]	SMILES
< 30	–	–	–	Cc1nnc2c3ccccc3c(-c3ccc(N4CCOCC4)c(NS(=O)(=O)c4ccccc4Cl)c3)nn12
–	< 25	< 25	< 25	CCC(=O)Nc1cc(-c2nn3c(C)nnc3c3ccccc23)ccc1C
–	< 25	< 25	< 25	Cc1ccc(-c2nn3c(C)nnc3c3ccccc23)cc1NS(C)(=O)=O
< 30	–	–	–	Cc1nnc2c3ccccc3c(-c3ccc(N4CCOCC4)c(NS(C)(=O)=O)c3)nn12
–	< 25	< 25	< 25	Cc1ccc(-c2nn3c(C)nnc3c3ccccc23)cc1S(=O)(=O)N(C)C
< 30	–	–	–	COc1ccc(S(=O)(=O)Nc2cc(-c3nn4c(C)nnc4c4ccccc34)ccc2N2CCN(C)CC2)cc1
–	< 25	< 25	< 25	CNS(=O)(=O)c1cc(-c2nn3c(C)nnc3c3ccccc23)ccc1C
< 30	–	–	–	Cc1nnc2c3ccccc3c(-c3ccc(N4CCOCC4)c(NS(=O)(=O)c4ccc(Cl)cc4)c3)nn12
